From article PMC12472621, “Excavating Precursors from Herb Pairs Polygala tenuifolia and Acori tatarinowii: Synthesis and Anticonvulsant Activity Evaluation of 3,4,5-Trimethoxycinnamic Acid (TMCA) Piperazine Amide Derivatives” (Pharmaceuticals, 2025) come the findings set out here.

The structures appear in SMILES notation. Read-outs that look alike come from different tables or passages of the source.

The test system of the test is maximal electroshock (MES) induced seizures. Nature of the test: Maximal electroshock (MES) test. The test is classed as in vivo, mice. To be noted: Mus musculus, ip, 100 mg/kg i.p., mice. From the text: Male Kunming mice (23–28 g) were maintained under controlled conditions with ad libitum access to standard pellet diet and water. Test compounds were formulated immediately prior to administration in normal saline containing 0.5% Tween-80. Our experiment was authorized by the Institutional Animal Care and Use Committee of Shaanxi University of Chinese Medicine (animal ethics certificate number: SUCMDL20210309027).
The MES test carried out following the method of Swinyard. A 60 Hz current (50 mA; 0.25 s duration) was delivered via corneal electrodes using a YSD-4G electro convulsion meter (Zhenghua Instruments, Huaibei, China, SN: ZH0056232). […] Test compounds were suspended in an identical vehicle. Protection was defined as abolition of tonic hindlimb extension.

[1] abbreviates: 0.5 h, read-out: MES model, protected mice/total mice, 0.5 h (converted).
Setting [2] is: 1 h, read-out: MES model, protected mice/total mice, 1 h (converted).
[3] abbreviates: 2 h, read-out: MES model, protected mice/total mice, 2 h (converted).
Setting [4] is: 3 h, read-out: MES model, protected mice/total mice, 3 h (converted).

As for `COc1cc(/C=C/C(=O)N2CCN(CCCC(=O)O[C@H]3C[C@H]4CC[C@]3(C)C4(C)C)CC2)cc(OC)c1OC` (relative stereo) [A7, rel-(1R,2S,4R)-1,7,7-trimethylbicyclo [2.2.1]heptan-2-yl 4-(4-((E)-3-(3,4,5-trimethoxyphenyl)acryloyl)piperazin-1-yl)butanoate], the responders at 100 mg/kg under setting [1] is 75%, the responders at 100 mg/kg under setting [2] was 50%, the responders at 100 mg/kg under setting [3] was 25% and the responders at 100 mg/kg under setting [4] was 0%.

On to `COc1cc(/C=C/C(=O)N2CCN(CCCC(=O)O)CC2)cc(OC)c1OC` [A1], for which the responders at 100 mg/kg is 25% under setting [1], 25% under setting [2], 0% under setting [3] and 0% under setting [4].

On to `C=CCc1ccc(OC(=O)CCCN2CCN(C(=O)/C=C/c3cc(OC)c(OC)c(OC)c3)CC2)c(OC)c1` [A2, 4-allyl-2-methoxyphenyl (E)-4-(4-(3-(3,4,5-trimethoxyphenyl)acryloyl)piperazin-1-yl)butanoate], for which the responders at 100 mg/kg reads like this: under setting [1], 50%; under setting [2], 50%; under setting [3], 25%; under setting [4], 0%.

Regarding `C=CCc1ccccc1OC(=O)CCCN1CCN(C(=O)/C=C/c2cc(OC)c(OC)c(OC)c2)CC1` [A4, 2-allylphenyl (E)-4-(4-(3-(3,4,5-trimethoxyphenyl)acryloyl)piperazin-1-yl)butanoate], the responders at 100 mg/kg is 50% under setting [1], 50% under setting [2], 25% under setting [3] and 0% under setting [4].

With `COc1cc(OC)c(OC)cc1/C=C/COC(=O)CCCN1CCN(C(=O)/C=C/c2cc(OC)c(OC)c(OC)c2)CC1` [A5, (E)-3-(2,4,5-trimethoxyphenyl)allyl 4-(4-((E)-3-(3,4,5-trimethoxyphenyl)acryloyl)piperazin-1-yl)butanoate], the responders at 100 mg/kg under setting [1] is 75%, the responders at 100 mg/kg under setting [2] is 75%, the responders at 100 mg/kg under setting [3] is 50% and the responders at 100 mg/kg under setting [4] is 0%.

For `COc1cc(/C=C/C(=O)N2CCN(CCCC(=O)OCC=Cc3ccccc3)CC2)cc(OC)c1OC` [A6, cinnamyl 4-(4-((E)-3-(3,4,5-trimethoxyphenyl)acryloyl)piperazin-1-yl)butanoate], the responders at 100 mg/kg runs as follows: under setting [1], 50%; under setting [2], 50%; under setting [3], 25%; under setting [4], 0%.

`COc1cc(/C=C/C(=O)N2CCN(CCCC(=O)N3CCN(C(c4ccccc4)c4ccccc4)CC3)CC2)cc(OC)c1OC` [A8, (E)-1-(4-benzhydrylpiperazin-1-yl)-4-(4-(3-(3,4,5-trimethoxyphenyl)acryloyl)piperazin-1-yl)butan-1-one]: the responders at 100 mg/kg reads like this: under setting [1], 75%; under setting [2], 50%; under setting [3], 25%; under setting [4], 0%.

For the compound `COc1cc(/C=C/C(=O)N2CCN(CCCC(=O)N3CCN(c4nsc5ccccc45)CC3)CC2)cc(OC)c1OC` [A10, (E)-1-(4-(benzo[d]isothiazol-3-yl)piperazin-1-yl)-4-(4-(3-(3,4,5-trimethoxyphenyl)acryloyl)piperazin-1-yl)butan-1-one], the responders at 100 mg/kg runs as follows: under setting [1], 75%; under setting [2], 25%; under setting [3], 25%; under setting [4], 0%.

As for `COc1cc(/C=C/C(=O)N2CCN(CCCC(=O)N3CCN(c4ccccc4)CC3)CC2)cc(OC)c1OC` [A11, (E)-1-(4-phenylpiperazin-1-yl)-4-(4-(3-(3,4,5-trimethoxyphenyl)acryloyl)piperazin-1-yl)butan-1-one], the responders at 100 mg/kg under setting [1] is 25%, the responders at 100 mg/kg under setting [2] is 25%, the responders at 100 mg/kg under setting [3] was 25% and the responders at 100 mg/kg under setting [4] was 0%.

For the compound `COc1cc(/C=C/C(=O)N2CCN(CCCC(=O)N3CCN(c4cccc(Cl)c4)CC3)CC2)cc(OC)c1OC` [A13, (E)-1-(4-(3-chlorophenyl)piperazin-1-yl)-4-(4-(3-(3,4,5-trimethoxyphenyl)acryloyl)piperazin-1-yl)butan-1-one], the responders at 100 mg/kg is, setting by setting: under setting [1], 25%; under setting [2], 25%; under setting [3], 0%; under setting [4], 0%.

As for `COc1ccccc1N1CCN(C(=O)CCCN2CCN(C(=O)/C=C/c3cc(OC)c(OC)c(OC)c3)CC2)CC1` [A15, (E)-1-(4-(2-methoxyphenyl)piperazin-1-yl)-4-(4-(3-(3,4,5-trimethoxyphenyl)acryloyl)piperazin-1-yl)butan-1-one], the responders at 100 mg/kg runs as follows: under setting [1], 75%; under setting [2], 75%; under setting [3], 25%; under setting [4], 0%.

On to `COc1cc(/C=C/C(=O)N2CCN(CCCC(=O)N3CCN(c4ncccn4)CC3)CC2)cc(OC)c1OC` [A16, (E)-1-(4-(pyrimidin-2-yl)piperazin-1-yl)-4-(4-(3-(3,4,5-trimethoxyphenyl)acryloyl)piperazin-1-yl)butan-1-one], for which the responders at 100 mg/kg runs as follows: under setting [1], 75%; under setting [2], 75%; under setting [3], 50%; under setting [4], 0%.

Take `COc1cc(/C=C/C(=O)N2CCN(CCCC(=O)N3CCC(c4noc5cc(F)ccc45)CC3)CC2)cc(OC)c1OC` [A17, (E)-1-(4-(6-fluorobenzo[d]isoxazol-3-yl)piperidin-1-yl)-4-(4-(3-(3,4,5-trimethoxyphenyl)acryloyl)piperazin-1-yl)butan-1-one]: the responders at 100 mg/kg runs as follows: under setting [1], 50%; under setting [2], 50%; under setting [3], 25%; under setting [4], 0%.

`COc1cc(/C=C/C(=O)N2CCN(C(=O)CCC(=O)O)CC2)cc(OC)c1OC` [B1]: the responders at 100 mg/kg reads like this: under setting [1], 25%; under setting [2], 25%; under setting [3], 0%; under setting [4], 0%.

`C=CCc1ccc(OC(=O)CCC(=O)N2CCN(C(=O)/C=C/c3cc(OC)c(OC)c(OC)c3)CC2)c(OC)c1` [B2, 4-allyl-2-methoxyphenyl (E)-4-oxo-4-(4-(3-(3,4,5-trimethoxyphenyl)acryloyl)piperazin-1-yl)butanoate]: the responders at 100 mg/kg under setting [1] is 75%, the responders at 100 mg/kg under setting [2] is 75%, the responders at 100 mg/kg under setting [3] is 25% and the responders at 100 mg/kg under setting [4] is 0%.

Turning to `C/C=C/c1ccc(OC(=O)CCC(=O)N2CCN(C(=O)/C=C/c3cc(OC)c(OC)c(OC)c3)CC2)c(OC)c1` [B3, 2-methoxy-4-((E)-prop-1-en-1-yl)phenyl 4-oxo-4-(4-((E)-3-(3,4,5-trimethoxyphenyl)acryloyl)piperazin-1-yl)butanoate], the responders at 100 mg/kg runs as follows: under setting [1], 75%; under setting [2], 75%; under setting [3], 25%; under setting [4], 0%.

On to `C=CCc1ccccc1OC(=O)CCC(=O)N1CCN(C(=O)/C=C/c2cc(OC)c(OC)c(OC)c2)CC1` [B4, 2-allylphenyl (E)-4-oxo-4-(4-(3-(3,4,5-trimethoxyphenyl)acryloyl)piperazin-1-yl)butanoate], for which the responders at 100 mg/kg is, setting by setting: under setting [1], 75%; under setting [2], 50%; under setting [3], 50%; under setting [4], 0%.

Take `COc1cc(/C=C/C(=O)N2CCN(C(=O)CCC(=O)O[C@H]3C[C@H]4CC[C@]3(C)C4(C)C)CC2)cc(OC)c1OC` [B7, (1R,2S,4R)-1,7,7-trimethylbicyclo [2.2.1]heptan-2-yl 4-oxo-4-(4-((E)-3-(3,4,5-trimethoxyphenyl)acryloyl)piperazin-1-yl)butanoate]: the responders at 100 mg/kg was 75% under setting [1], 50% under setting [2], 25% under setting [3] and 0% under setting [4].

Consider `COc1cc(/C=C/C(=O)N2CCN(C(=O)CCC(=O)N3CCN(C(c4ccccc4)c4ccccc4)CC3)CC2)cc(OC)c1OC` [B8, (E)-1-(4-benzhydrylpiperazin-1-yl)-4-(4-(3-(3,4,5-trimethoxyphenyl)acryloyl)piperazin-1-yl)butane-1,4-dione], for which the responders at 100 mg/kg by setting is: under setting [1], 75%; under setting [2], 75%; under setting [3], 25%; under setting [4], 0%.

For the compound `COc1cc(/C=C/C(=O)N2CCN(C(=O)CCC(=O)N3CCN(c4nsc5ccccc45)CC3)CC2)cc(OC)c1OC` [B10, (E)-1-(4-(benzo[d]isothiazol-3-yl)piperazin-1-yl)-4-(4-(3-(3,4,5-trimethoxyphenyl)acryloyl)piperazin-1-yl)butane-1,4-dione], the responders at 100 mg/kg is, setting by setting: under setting [1], 75%; under setting [2], 75%; under setting [3], 25%; under setting [4], 0%.

In the case of `COc1cc(/C=C/C(=O)N2CCN(C(=O)CCC(=O)N3CCN(c4ccccc4)CC3)CC2)cc(OC)c1OC` [B11, (E)-1-(4-phenylpiperazin-1-yl)-4-(4-(3-(3,4,5-trimethoxyphenyl)acryloyl)piperazin-1-yl)butane-1,4-dione], the responders at 100 mg/kg is, setting by setting: under setting [1], 50%; under setting [2], 50%; under setting [3], 25%; under setting [4], 0%.
